Results: patent US8231721B2, “Antifungal liquid formulations” (LANXESS Deutschland GmbH, priority 2008, dated 2012)

Test: Solubility of IPBC in Rhodiasolv DIB and PEG 300 (HPLC of supernatant)
Format: physicochemical
Conditions: room temperature, after-stirred 12 h, supernatant by HPLC
Experimental: Solubility of IPBC in Rhodiasolv DIB and PEG 300
The solvent was introduced as initial charge at room temperature, and IPBC was added until a sediment persisted. It was after-stirred for a further 12 h, the solid was centrifuged off and the remaining supernatant was analyzed by means of HPLC.

CCCCNC(=O)OCC#CI [IPBC, 3-iodopropargyl butylcarbamate]
solubility of IPBC in Rhodiasolv DIB: 36.1 % by weight
solubility of IPBC in polyethylene glycol 300: 44.9 % by weight
